Measurements as given in PubChem BioAssay (NCI).
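Cells were grown in 96-well plates and exposed to each compound for 48 hours at five concentrations; endpoints were interpolated linearly between bracketing concentrations, or set to the highest concentration if not reached. The concentration for 50% growth inhibition is given as GI50. TGI denotes the concentration required for complete inhibition of growth.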

What was measured:
Experiment in all cases: growth of human tumour cells (NCI), 48 h
M14 melanoma = test system: M14 melanoma
KM12 colon = test system: KM12 colon
UACC-62 melanoma = test system: UACC-62 melanoma
MDA-MB-231 breast = test system: MDA-MB-231 breast
NCI/ADR-RES ovarian = test system: NCI/ADR-RES ovarian
SNB-75 CNS = test system: SNB-75 CNS
HT29 colon = test system: HT29 colon
NCI-H522 lung = test system: NCI-H522 lung
SK-MEL-5 melanoma = test system: SK-MEL-5 melanoma
OVCAR-5 ovarian = test system: OVCAR-5 ovarian
SNB-19 CNS = test system: SNB-19 CNS
ACHN renal = test system: ACHN renal
SK-MEL-28 melanoma = test system: SK-MEL-28 melanoma
HCC-2998 colon = test system: HCC-2998 colon
A549 NSCLC = test system: A549 NSCLC
UO-31 renal = test system: UO-31 renal
CAKI-1 renal = test system: CAKI-1 renal
OVCAR-4 ovarian = test system: OVCAR-4 ovarian
BT-549 breast = test system: BT-549 breast
RXF 393 renal = test system: RXF 393 renal
IGROV1 ovarian = test system: IGROV1 ovarian
SF-539 CNS = test system: SF-539 CNS
SF-295 CNS = test system: SF-295 CNS
HCT-15 colon = test system: HCT-15 colon
UACC-257 melanoma = test system: UACC-257 melanoma
MDA-MB-435 = test system: MDA-MB-435
SK-MEL-2 melanoma = test system: SK-MEL-2 melanoma
CCRF-CEM leukemia = test system: CCRF-CEM leukemia
U251 CNS = test system: U251 CNS
TK-10 renal = test system: TK-10 renal
786-0 renal = test system: 786-0 renal
MALME-3M melanoma = test system: MALME-3M melanoma
MCF7 breast = test system: MCF7 breast
HL-60(TB) leukemia = test system: HL-60(TB) leukemia
SR leukemia = test system: SR leukemia
COLO 205 colon = test system: COLO 205 colon
SW-620 colon = test system: SW-620 colon
NCI-H226 lung = test system: NCI-H226 lung
SN12C renal = test system: SN12C renal
PC-3 prostate = test system: PC-3 prostate
HOP-92 NSCLC = test system: HOP-92 NSCLC
K-562 leukemia = test system: K-562 leukemia
A498 renal = test system: A498 renal
SF-268 CNS = test system: SF-268 CNS
HCT-116 colon = test system: HCT-116 colon
NCI-H460 lung = test system: NCI-H460 lung
HOP-62 NSCLC = test system: HOP-62 NSCLC
SK-OV-3 ovarian = test system: SK-OV-3 ovarian
MOLT-4 leukemia = test system: MOLT-4 leukemia
T-47D breast = test system: T-47D breast
DU-145 prostate = test system: DU-145 prostate
OVCAR-8 ovarian = test system: OVCAR-8 ovarian
OVCAR-3 ovarian = test system: OVCAR-3 ovarian
HS 578T breast = test system: HS 578T breast
EKVX NSCLC = test system: EKVX NSCLC
RPMI-8226 leukemia = test system: RPMI-8226 leukemia

CCCCCCNC(=O)Oc1ccc(/C(=C(/C)c2ccccc2)c2ccc(OCCN3CCCCCC3)cc2)cc1
GI50 (M14 melanoma): 2.89 µM | TGI (M14 melanoma): 11.1 µM | GI50 (KM12 colon): 6.31 µM | TGI (KM12 colon): 35.6 µM | GI50 (UACC-62 melanoma): 9.09 µM | TGI (UACC-62 melanoma): 22 µM | GI50 (MDA-MB-231 breast): 12.8 µM | TGI (MDA-MB-231 breast): 26.8 µM | GI50 (NCI/ADR-RES ovarian): 12.3 µM | TGI (NCI/ADR-RES ovarian): 28.8 µM | GI50 (SNB-75 CNS): 9.25 µM | TGI (SNB-75 CNS): 21.7 µM | GI50 (HT29 colon): 3.07 µM | TGI (HT29 colon): 11.1 µM | GI50 (NCI-H522 lung): 12.6 µM | TGI (NCI-H522 lung): 26 µM | GI50 (SK-MEL-5 melanoma): 14.2 µM | TGI (SK-MEL-5 melanoma): 27.6 µM | GI50 (OVCAR-5 ovarian): 12.4 µM | TGI (OVCAR-5 ovarian): 27 µM | GI50 (SNB-19 CNS): 16.6 µM | TGI (SNB-19 CNS): 69.8 µM | GI50 (ACHN renal): 13.3 µM | TGI (ACHN renal): 26.2 µM | GI50 (SK-MEL-28 melanoma): 5.98 µM | TGI (SK-MEL-28 melanoma): 19.8 µM | GI50 (HCC-2998 colon): 11 µM | TGI (HCC-2998 colon): 23.5 µM | GI50 (A549 NSCLC): 12.1 µM | TGI (A549 NSCLC): 26.4 µM | GI50 (UO-31 renal): 4.02 µM | TGI (UO-31 renal): 17 µM | GI50 (CAKI-1 renal): 2.74 µM | TGI (CAKI-1 renal): 11.9 µM | GI50 (OVCAR-4 ovarian): 10 µM | TGI (OVCAR-4 ovarian): 23.4 µM | GI50 (BT-549 breast): 8.55 µM | TGI (BT-549 breast): 21.8 µM | GI50 (RXF 393 renal): 2.63 µM | TGI (RXF 393 renal): 9.11 µM | GI50 (IGROV1 ovarian): 11.9 µM | TGI (IGROV1 ovarian): 27.9 µM | GI50 (SF-539 CNS): 7.23 µM | TGI (SF-539 CNS): 21 µM | GI50 (SF-295 CNS): 5.74 µM | TGI (SF-295 CNS): 18.6 µM | GI50 (HCT-15 colon): 2.83 µM | TGI (HCT-15 colon): 9.61 µM | GI50 (UACC-257 melanoma): 3.75 µM | TGI (UACC-257 melanoma): 14.5 µM | GI50 (MDA-MB-435): 10.8 µM | TGI (MDA-MB-435): 23.3 µM | GI50 (SK-MEL-2 melanoma): 14.1 µM | TGI (SK-MEL-2 melanoma): 27.6 µM | GI50 (CCRF-CEM leukemia): 11.5 µM | TGI (CCRF-CEM leukemia): > 100 µM | GI50 (U251 CNS): 7.25 µM | TGI (U251 CNS): 20.7 µM | GI50 (TK-10 renal): 16.3 µM | TGI (TK-10 renal): 30.5 µM | GI50 (786-0 renal): 5.42 µM | TGI (786-0 renal): 18.7 µM | GI50 (MALME-3M melanoma): 7.97 µM | TGI (MALME-3M melanoma): 21.5 µM | GI50 (MCF7 breast): 0.172 µM | TGI (MCF7 breast): 13.1 µM | GI50 (HL-60(TB) leukemia): 2.79 µM | TGI (HL-60(TB) leukemia): 17.7 µM | GI50 (SR leukemia): 2.58 µM | TGI (SR leukemia): 12 µM | GI50 (COLO 205 colon): 3.14 µM | TGI (COLO 205 colon): 12.1 µM | GI50 (SW-620 colon): 3.18 µM | TGI (SW-620 colon): 12.5 µM | GI50 (NCI-H226 lung): 13.3 µM | TGI (NCI-H226 lung): 28.7 µM | GI50 (SN12C renal): 10.4 µM | TGI (SN12C renal): 23.7 µM | GI50 (PC-3 prostate): 6.2 µM | TGI (PC-3 prostate): 20.4 µM | GI50 (HOP-92 NSCLC): 2.9 µM | TGI (HOP-92 NSCLC): 14.9 µM | GI50 (K-562 leukemia): 2.87 µM | TGI (K-562 leukemia): > 100 µM | GI50 (A498 renal): 15.7 µM | TGI (A498 renal): 29.4 µM | GI50 (SF-268 CNS): 12.7 µM | TGI (SF-268 CNS): 29.4 µM | GI50 (HCT-116 colon): 4.33 µM | TGI (HCT-116 colon): 16.9 µM | GI50 (NCI-H460 lung): 4.27 µM | TGI (NCI-H460 lung): 16.1 µM | GI50 (HOP-62 NSCLC): 13 µM | TGI (HOP-62 NSCLC): 26.9 µM | GI50 (SK-OV-3 ovarian): 13 µM | TGI (SK-OV-3 ovarian): 26.4 µM | GI50 (MOLT-4 leukemia): 3.48 µM | TGI (MOLT-4 leukemia): 25 µM | GI50 (T-47D breast): 3.07 µM | TGI (T-47D breast): 21 µM | GI50 (DU-145 prostate): 15.7 µM | TGI (DU-145 prostate): 37.7 µM | GI50 (OVCAR-8 ovarian): 13.1 µM | TGI (OVCAR-8 ovarian): 26.6 µM | GI50 (OVCAR-3 ovarian): 12 µM | TGI (OVCAR-3 ovarian): 28.8 µM | GI50 (HS 578T breast): 8.02 µM | TGI (HS 578T breast): 26.9 µM | GI50 (EKVX NSCLC): 13.2 µM | TGI (EKVX NSCLC): 31.2 µM | GI50 (RPMI-8226 leukemia): 3.99 µM | TGI (RPMI-8226 leukemia): 23 µM
